Our source for the Ki values is patent US10584128B2, “Bicyclic dihydropyrimidine-carboxamide derivatives as Rho-Kinase inhibitors” (CHIESI FARMACEUTICI S.p.A., priority 2016, dated 2020).

The target in one experiment is Rho kinase 1 (Homo sapiens, UniProt Q13464). The experiment in a line: In vitro Rho kinase inhibitory activity assay (ADP-Glo kit, Myelin Basic Protein substrate). Format: biochemical. The settings on record: 10 μM ATP, 25° C., read-out: ROCK1 inhibitory activity (Ki, range of activity). The method, boiled down: (§1)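 First, compound was incubated with either Rho kinase isoform for 30 mins at 25 °C; next, ATP was added to 10 μM final with 2.5 μM Myelin Basic Protein substrate; after 1 hour, ADP formed was detected by ADP-Glo luminescence. Dose-response data yielded IC50, converted to Ki using Cheng-Prusoff.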
Rho kinase 1, sequence (Q13464 whole entry, canonical isoform): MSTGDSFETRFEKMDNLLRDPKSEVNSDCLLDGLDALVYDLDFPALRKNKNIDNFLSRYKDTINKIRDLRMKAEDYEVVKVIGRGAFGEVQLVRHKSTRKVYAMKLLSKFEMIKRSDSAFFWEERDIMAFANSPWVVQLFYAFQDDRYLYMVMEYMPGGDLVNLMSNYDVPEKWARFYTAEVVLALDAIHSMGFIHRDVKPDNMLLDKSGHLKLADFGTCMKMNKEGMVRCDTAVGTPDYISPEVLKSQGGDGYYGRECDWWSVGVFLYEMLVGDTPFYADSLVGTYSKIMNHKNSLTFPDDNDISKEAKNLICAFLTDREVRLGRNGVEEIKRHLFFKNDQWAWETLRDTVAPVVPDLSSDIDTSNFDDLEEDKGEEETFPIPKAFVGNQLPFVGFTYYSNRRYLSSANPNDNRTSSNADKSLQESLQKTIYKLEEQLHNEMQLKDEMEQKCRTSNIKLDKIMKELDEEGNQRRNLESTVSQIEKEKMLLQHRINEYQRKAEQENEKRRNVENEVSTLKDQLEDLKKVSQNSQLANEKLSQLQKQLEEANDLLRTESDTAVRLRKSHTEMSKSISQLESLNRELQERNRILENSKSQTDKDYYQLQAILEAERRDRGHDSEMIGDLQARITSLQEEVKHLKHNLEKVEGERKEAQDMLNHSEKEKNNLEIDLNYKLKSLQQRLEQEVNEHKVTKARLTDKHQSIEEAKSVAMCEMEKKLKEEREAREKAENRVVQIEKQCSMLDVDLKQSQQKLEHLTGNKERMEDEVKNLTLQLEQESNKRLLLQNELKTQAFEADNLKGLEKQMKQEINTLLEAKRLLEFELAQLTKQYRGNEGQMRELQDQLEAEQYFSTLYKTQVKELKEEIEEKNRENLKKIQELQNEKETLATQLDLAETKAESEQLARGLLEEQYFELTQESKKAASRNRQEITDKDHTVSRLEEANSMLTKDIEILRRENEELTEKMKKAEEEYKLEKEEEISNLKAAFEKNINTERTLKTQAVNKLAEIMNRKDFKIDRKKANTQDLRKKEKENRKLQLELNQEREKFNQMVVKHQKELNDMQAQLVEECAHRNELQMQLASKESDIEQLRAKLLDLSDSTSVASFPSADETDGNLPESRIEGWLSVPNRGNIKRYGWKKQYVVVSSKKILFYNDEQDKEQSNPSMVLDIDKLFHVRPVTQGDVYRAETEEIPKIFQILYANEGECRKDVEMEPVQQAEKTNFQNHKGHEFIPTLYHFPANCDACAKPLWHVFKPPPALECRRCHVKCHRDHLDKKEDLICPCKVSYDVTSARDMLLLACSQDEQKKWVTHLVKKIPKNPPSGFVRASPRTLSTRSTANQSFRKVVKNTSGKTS

The target in another experiment is Rho kinase 2 (Homo sapiens, UniProt O75116). Described as above. Format: biochemical. The settings on record: 10 μM ATP, 25° C., read-out: ROCK2 inhibitory activity (Ki, range of activity). In outline:
as §1

By Ki is commonly meant a dissociation constant, usually derived from enzyme kinetics or from competition with a known ligand.

Rho kinase 2, sequence (O75116 whole entry): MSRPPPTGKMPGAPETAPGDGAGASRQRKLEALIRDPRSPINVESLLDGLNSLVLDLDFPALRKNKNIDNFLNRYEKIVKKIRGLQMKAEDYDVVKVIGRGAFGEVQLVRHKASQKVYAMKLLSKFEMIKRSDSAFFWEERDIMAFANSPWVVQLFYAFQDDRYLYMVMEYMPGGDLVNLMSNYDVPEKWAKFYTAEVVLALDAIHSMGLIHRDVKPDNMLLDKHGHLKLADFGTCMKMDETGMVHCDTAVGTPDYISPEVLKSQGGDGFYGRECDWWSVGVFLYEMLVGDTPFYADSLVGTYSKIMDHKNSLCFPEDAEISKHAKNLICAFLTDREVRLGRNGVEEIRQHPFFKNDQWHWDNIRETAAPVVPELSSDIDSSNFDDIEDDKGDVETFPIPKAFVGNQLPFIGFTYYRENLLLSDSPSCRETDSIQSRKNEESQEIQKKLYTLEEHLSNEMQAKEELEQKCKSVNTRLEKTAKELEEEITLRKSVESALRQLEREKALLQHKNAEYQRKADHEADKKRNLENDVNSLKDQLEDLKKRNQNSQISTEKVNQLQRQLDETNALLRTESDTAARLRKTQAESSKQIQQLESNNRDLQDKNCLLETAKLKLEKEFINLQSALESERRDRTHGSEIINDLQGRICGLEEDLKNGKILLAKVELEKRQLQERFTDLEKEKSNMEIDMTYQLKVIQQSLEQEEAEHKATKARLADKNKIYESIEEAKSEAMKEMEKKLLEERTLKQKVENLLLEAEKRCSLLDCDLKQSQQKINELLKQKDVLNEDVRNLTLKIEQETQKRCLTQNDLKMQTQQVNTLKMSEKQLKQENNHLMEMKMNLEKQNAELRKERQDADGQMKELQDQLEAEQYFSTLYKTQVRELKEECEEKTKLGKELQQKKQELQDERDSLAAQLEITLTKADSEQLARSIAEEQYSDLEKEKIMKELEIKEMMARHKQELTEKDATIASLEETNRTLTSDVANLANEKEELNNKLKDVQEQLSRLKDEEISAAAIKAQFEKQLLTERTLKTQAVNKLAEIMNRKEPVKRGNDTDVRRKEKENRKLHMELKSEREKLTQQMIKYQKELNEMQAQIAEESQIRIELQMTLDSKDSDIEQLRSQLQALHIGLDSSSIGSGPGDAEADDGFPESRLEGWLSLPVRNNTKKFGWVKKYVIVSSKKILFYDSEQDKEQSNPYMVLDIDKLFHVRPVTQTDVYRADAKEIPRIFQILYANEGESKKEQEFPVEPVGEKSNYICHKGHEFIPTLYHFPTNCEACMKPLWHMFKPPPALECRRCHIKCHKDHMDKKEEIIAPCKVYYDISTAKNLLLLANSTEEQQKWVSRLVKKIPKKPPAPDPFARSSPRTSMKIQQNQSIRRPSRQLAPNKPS

Take `CC1=C(C(=O)Nc2ccc3[nH]ncc3c2)C(c2ccc(F)cc2)n2nc(Br)cc2N1` (centres unmarked) [Example 30, 2-bromo-7-(4-fluorophenyl)-N-(1H-indazol-5-yl)-5-methyl-4,7-dihydropyrazolo[1,5-a]pyrimidine-6-carboxamide]: the Ki at Rho kinase 1 and at Rho kinase 2 was < 50 nM throughout.

Consider `CC1=C(C(=O)Nc2ccc3[nH]ncc3c2)C(c2ccc(F)cc2)n2nc(C#N)cc2N1` (centres unmarked) [Example 31, 2-cyano-7-(4-fluorophenyl)-N-(1H-indazol-5-yl)-5-methyl-4,7-dihydropyrazolo[1,5-a]pyrimidine-6-carboxamide], for which the Ki on Rho kinase 1 and on Rho kinase 2 was < 50 nM throughout.

In the case of `CC1=C(C(=O)Nc2ccc3[nH]ncc3c2)C(C2CCN(C)CC2)n2nc(C(F)(F)F)cc2N1` (centres unmarked) [Example 33, N-(1H-indazol-5-yl)-5-methyl-7-(1-methylpiperidin-4-yl)-2-(trifluoromethyl)-4,7-dihydropyrazolo[1,5-a]pyrimidine-6-carboxamide], the Ki at Rho kinase 1 and at Rho kinase 2 was > 500 nM each time.

As to `CC1=C(C(=O)Nc2ccc3[nH]ncc3c2)C(c2ccc(C(F)(F)F)cc2)n2nc(C#N)cc2N1` (centres unmarked) [Example 34, 2-cyano-N-(1H-indazol-5-yl)-5-methyl-7-(4-(trifluoromethyl)phenyl)-4,7-dihydropyrazolo[1,5-a]pyrimidine-6-carboxamide], the Ki on Rho kinase 1 and at Rho kinase 2 was < 50 nM in each case.

Regarding `COCc1cc2n(n1)C(c1ccc(C(F)(F)F)cc1)C(C(=O)Nc1ccc3[nH]ncc3c1)=C(C)N2` (centres unmarked) [Example 35, N-(1H-indazol-5-yl)-2-(methoxymethyl)-5-methyl-7-(4-(trifluoromethyl)phenyl)-4,7-dihydropyrazolo[1,5-a]pyrimidine-6-carboxamide], the Ki at Rho kinase 1 and on Rho kinase 2 was < 50 nM throughout.

`COCc1cc2n(n1)C(c1ccc(C(F)(F)F)c(F)c1)C(C(=O)Nc1ccc3cnccc3c1)=C(C)N2` (centres unmarked) [Example 36, 7-(3-fluoro-4-(trifluoromethyl)phenyl)-N-(isoquinolin-6-yl)-2-(methoxymethyl)-5-methyl-4,7-dihydropyrazolo[1,5-a]pyrimidine-6-carboxamide]: the Ki on Rho kinase 1 and on Rho kinase 2 was < 50 nM in each case.

Turning to `CC1=C(C(=O)Nc2ccc3cnccc3c2)C(c2ccc(C(F)(F)F)c(F)c2)n2nc(CCN(C)C)cc2N1` (centres unmarked) [Example 37, 2-(2-(dimethylamino)ethyl)-7-(3-fluoro-4-(trifluoromethyl)phenyl)-N-(isoquinolin-6-yl)-5-methyl-4,7-dihydropyrazolo[1,5-a]pyrimidine-6-carboxamide], the Ki on Rho kinase 1 and on Rho kinase 2 was < 50 nM in each case.

For the molecule `COCc1cc2n(n1)C(c1ccc3cc[nH]c3c1)C(C(=O)Nc1ccc3cnccc3c1)=C(C)N2` (centres unmarked) [Example 38, 7-(1H-indol-6-yl)-N-(isoquinolin-6-yl)-2-(methoxymethyl)-5-methyl-4,7-dihydropyrazolo[1,5-a]pyrimidine-6-carboxamide], the Ki on Rho kinase 1 and at Rho kinase 2 was < 50 nM each time.

As to `CC1=C(C(=O)Nc2cc3cn[nH]c3cc2F)C(c2ccc(Cl)nc2)n2nc(C(F)(F)F)cc2N1` (centres unmarked) [Example 39, 7-(6-chloropyridin-3-yl)-N-(6-fluoro-1H-indazol-5-yl)-5-methyl-2-(trifluoromethyl)-4,7-dihydropyrazolo[1,5-a]pyrimidine-6-carboxamide], the Ki at Rho kinase 1 and at Rho kinase 2 was < 50 nM each time.

On to `CCOC(=O)c1cc2n(n1)C(c1ccc(C(F)(F)F)c(F)c1)C(C(=O)Nc1cc3cnccc3s1)=C(C)N2` (centres unmarked) [Example 41, Ethyl 7-(3-fluoro-4-(trifluoromethyl)phenyl)-5-methyl-6-(thieno[3,2-c]pyridin-2-ylcarbamoyl)-4,7-dihydropyrazolo[1,5-a]pyrimidine-2-carboxylate], for which the figures for the Ki at Rho kinase 1 and on Rho kinase 2 were > 500 nM and 50 to 500 nM, respectively.

On to `CCOC(=O)c1cc2n(n1)C(c1ccc(C(F)(F)F)c(F)c1)C(C(=O)Nc1cc3ccncc3s1)=C(C)N2` (centres unmarked) [Example 42, ethyl 7-(3-fluoro-4-(trifluoromethyl)phenyl)-5-methyl-6-(thieno[2,3-c]pyridin-2-ylcarbamoyl)-4,7-dihydropyrazolo[1,5-a]pyrimidine-2-carboxylate], for which the Ki on Rho kinase 1 and on Rho kinase 2 was < 50 nM throughout.

With `CC1=C(C(=O)Nc2ccc3cnccc3c2)C(c2cccc3c2ccn3C)n2nc(CO)cc2N1` (centres unmarked) [Example 44, 2-(hydroxymethyl)-N-(isoquinolin-6-yl)-5-methyl-7-(1-methyl-1H-indol-4-yl)-4,7-dihydropyrazolo[1,5-a]pyrimidine-6-carboxamide], the Ki on Rho kinase 1 and at Rho kinase 2 was 50 to 500 nM throughout.

`CC1=C(C(=O)Nc2ccc3cnccc3c2)C(c2ccc3ncn(C)c3c2)n2nc(CO)cc2N1` (centres unmarked) [Example 45, 2-(hydroxymethyl)-N-(isoquinolin-6-yl)-5-methyl-7-(1-methyl-1H-benzo[d]imidazol-6-yl)-4,7-dihydropyrazolo[1,5-a]pyrimidine-6-carboxamide]: the Ki on Rho kinase 1 and at Rho kinase 2 was > 500 nM throughout.

`CC1=C(C(=O)Nc2ccc3cnccc3c2)C(c2ccc3ccsc3c2)n2nc(CO)cc2N1` (centres unmarked) [Example 46, 7-(benzo[b]thiophen-6-yl)-2-(hydroxymethyl)-N-(isoquinolin-6-yl)-5-methyl-4,7-dihydropyrazolo[1,5-a]pyrimidine-6-carboxamide]: the Ki on Rho kinase 1 and at Rho kinase 2 was < 50 nM throughout.

Regarding `CC1=C(C(=O)Nc2ccc3cnccc3c2)C(c2ccc(Cl)c(C(F)(F)F)c2)n2nc(CO)cc2N1` (centres unmarked) [Example 47, 7-(4-chloro-3-(trifluoromethyl)phenyl)-2-(hydroxymethyl)-N-(isoquinolin-6-yl)-5-methyl-4,7-dihydropyrazolo[1,5-a]pyrimidine-6-carboxamide], the Ki on Rho kinase 1 and at Rho kinase 2 was < 50 nM each time.

Turning to `CC1=C(C(=O)Nc2ccc3cnccc3c2)C(C23CC4CC(CC(C4)C2)C3)n2nc(CO)cc2N1` (centres unmarked) [Example 48, 7-((3r,5r,7r)-adamantan-1-yl)-2-(hydroxymethyl)-N-(isoquinolin-6-yl)-5-methyl-4,7-dihydropyrazolo[1,5-a]pyrimidine-6-carboxamide], the Ki on Rho kinase 1 and on Rho kinase 2 was 50 to 500 nM each time.

As to `CC1=C(C(=O)Nc2ccc3cnccc3c2)C(c2cnc(-c3ccccc3)o2)n2nc(CO)cc2N1` (centres unmarked) [Example 49, 2-(hydroxymethyl)-N-(isoquinolin-6-yl)-5-methyl-7-(2-phenyloxazol-5-yl)-4,7-dihydropyrazolo[1,5-a]pyrimidine-6-carboxamide], the Ki on Rho kinase 1 was 50 to 500 nM; at Rho kinase 2, < 50 nM.

For `CC1=C(C(=O)Nc2ccc3cnccc3c2)C(c2cccc(Oc3ccccc3)c2)n2nc(CO)cc2N1` (centres unmarked) [Example 50, 2-(hydroxymethyl)-N-(isoquinolin-6-yl)-5-methyl-7-(3-phenoxyphenyl)-4,7-dihydropyrazolo[1,5-a]pyrimidine-6-carboxamide], the results for the Ki at Rho kinase 1 and on Rho kinase 2 were 50 to 500 nM and < 50 nM, respectively.

Consider `CC1=C(C(=O)Nc2ccc3cnccc3c2)C(c2cccc(C(F)(F)F)c2)n2nc(CO)cc2N1` (centres unmarked) [Example 51, 2-(hydroxymethyl)-N-(isoquinolin-6-yl)-5-methyl-7-(3-(trifluoromethyl)phenyl)-4,7-dihydropyrazolo[1,5-a]pyrimidine-6-carboxamide], for which the Ki on Rho kinase 1 and at Rho kinase 2 was < 50 nM each time.

`CC1=C(C(=O)Nc2ccc3cnccc3c2)C(c2cnc(-c3ccccc3)s2)n2nc(CO)cc2N1` (centres unmarked) [Example 52, 2-(hydroxymethyl)-N-(isoquinolin-6-yl)-5-methyl-7-(2-phenylthiazol-5-yl)-4,7-dihydropyrazolo[1,5-a]pyrimidine-6-carboxamide]: the Ki at Rho kinase 1 and at Rho kinase 2 was < 50 nM throughout.

For the molecule `CC1=C(C(=O)Nc2ccc3cnccc3c2)C(CCc2ccccc2)n2nc(CO)cc2N1` (centres unmarked) [Example 53, 2-(hydroxymethyl)-N-(isoquinolin-6-yl)-5-methyl-7-phenethyl-4,7-dihydropyrazolo[1,5-a]pyrimidine-6-carboxamide], the Ki at Rho kinase 1 and at Rho kinase 2 was < 50 nM in each case.

Consider `CC1=C(C(=O)Nc2ccc3cnccc3c2)C(c2ccc(C(C)(C)C)cc2)n2nc(CO)cc2N1` (centres unmarked) [Example 54, 7-(4-(tert-butyl)phenyl)-2-(hydroxymethyl)-N-(isoquinolin-6-yl)-5-methyl-4,7-dihydropyrazolo[1,5-a]pyrimidine-6-carboxamide], for which the Ki on Rho kinase 1 was 50 to 500 nM; on Rho kinase 2 it was < 50 nM.

Regarding `CC1=C(C(=O)Nc2ccc3cnccc3c2)C(c2ccc(Br)c(F)c2)n2nc(CO)cc2N1` (centres unmarked) [Example 55, 7-(4-bromo-3-fluorophenyl)-2-(hydroxymethyl)-N-(isoquinolin-6-yl)-5-methyl-4,7-dihydropyrazolo[1,5-a]pyrimidine-6-carboxamide], the Ki on Rho kinase 1 and at Rho kinase 2 was < 50 nM throughout.

Turning to `CC1=C(C(=O)Nc2ccc3cnccc3c2)C(c2ccc(C(F)(F)F)c(F)c2F)n2nc(CO)cc2N1` (centres unmarked) [Example 56, 7-(2,3-difluoro-4-(trifluoromethyl)phenyl)-2-(hydroxymethyl)-N-(isoquinolin-6-yl)-5-methyl-4,7-dihydropyrazolo[1,5-a]pyrimidine-6-carboxamide], the Ki at Rho kinase 1 and at Rho kinase 2 was < 50 nM throughout.

Consider `CC1=C(C(=O)Nc2ccc3cnccc3c2)C(c2ccc(Cl)c(F)c2)n2nc(CO)cc2N1` (centres unmarked) [Example 57, 7-(4-chloro-3-fluorophenyl)-2-(hydroxymethyl)-N-(isoquinolin-6-yl)-5-methyl-4,7-dihydropyrazolo[1,5-a]pyrimidine-6-carboxamide], for which the Ki on Rho kinase 1 and at Rho kinase 2 was < 50 nM throughout.
